Data as given in paper PMC11899342, “Novel Triazeneindole Antibiotics: Synthesis and Hit-to-Lead Optimization” (International Journal of Molecular Sciences, 2025).
Converted amounts (≈) assume the structure as drawn. Read-outs that look alike come from different tables or passages of the source.

Assays:
MRSA clinical isolates = assay: MIC by broth microdilution against multidrug-resistant MRSA clinical isolates; format: cell-based, Staphylococcus aureus; settings: for MIC Range Against 8 MRSA Strains: 8 multidrug-resistant MRSA clinical isolates, tested 0.125-1 mg/L; for MIC: Staphylococcus aureus, MRSA, read-out: MIC against 8 MRSA strains
Experimental: Clinical MRSA isolates with multidrug resistance were obtained from the collection of the Research Institute of Antimicrobial Chemotherapy, Smolensk State Medical Academy.
The MICs were determined using a broth microdilution method according to [42]. Briefly, serial dilutions of the tested compounds in 50 µL of Mueller Hinton broth (BD) were prepared in 96-well microplates. The antibiotics vancomycin and linezolid (Sigma-Aldrich, St. Louis, MO, USA) were used as a positive control. Bacterial suspensions of the tested MRSA strains were prepared in the Mueller Hinton broth (BD) with a concentration 1 × 10^6 CFU/mL, and then 50 µL aliquots were added to the prepared microplates. The final concentrations of the antibiotics in the wells were 1, 0.5, 0.25, and 0.125 mg/L, for the tested compounds, and 2 mg/L for vancomycin and linezolid. Negative control (lack of bacterial cells) and growth control (lack of compound) wells were included in all plates. The microplates were incubated at 37 °C for 18 h. The growth was assessed visually after incubation, and the MIC was assumed as the lowest compound concentration at which a noticeable growth of the microorganisms was inhibited (no visible growth). All experiments were conducted in triplicate.

[1] = system: human embryonic fibroblasts (HEFs); assay: MTT cytotoxicity on human embryonic fibroblasts; format: cell-based; settings: 24 h, ND = non-toxic in tested concentrations (up to 50 mg/L); for IC50: Homo sapiens, Fibroblast
Experimental: (§1) The primary screening of 22 substances was performed on human embryonic fibroblasts (HEFs). […] The HepG2 cell line was obtained from the American Type Culture Collection (ATCC cat. # HB-8065). The primary HEF cells (normal human embryonic fibroblasts) were derived from human embryonic stem cells. The cells were cultured in DMEM/F12 (1:1) medium containing 10% fetal bovine serum (Invitrogen, Carlsbad, CA, USA) at 37 °C and 5% CO2, according to standard mammalian tissue culture protocols and sterile technique. […] The incubation time with the substance was 24 h for all substances and cell lines. Cell detachment by trypsin, centrifugation, and counting in a hemocytometer were performed 16 h before the addition of the substance. For correct counting of the HepG2 cells, the cell suspension was passed through a syringe needle to get rid of cell aggregates. The cells were placed in the wells of a 96-well plate. The number of cells was selected according to the properties of the cell line and the final optical density in the experiment. Fibroblasts and hepatocytes were used in the amount of 10 thousand cells per well in 100 μL of DMEM/F12 medium supplemented with 10% fetal bovine serum. The substances were added to 100 µL of medium in the wells so that the final concentrations were 50, 25, 12.5, 6.25, 3.125, and 1.62 mg/L. The final well volume was 200 µL. The medium containing fetal bovine serum, without added substances, was used as a negative control. After 24 h, excessive amounts of medium were discarded. A total of 30 µL of MTT solution (5 mg/mL in PBS) was added to each well. After the precipitation of formazan crystals (3 h incubation), they were dissolved using 100 μL of dimethyl sulfoxide. The optical density (OD) was measured at 570 nm using a microplate reader (Eppendorf). For every condition, the cell viabilities were assessed in at least three independent experiments for every cell culture. Cell survival was calculated using the following formula:(OD of treated cells − OD blank)/(OD of control cells − OD blank) × 100%, where OD blank represents the OD values in wells without cells but with the addition of the MTT and DMSO solutions. The results were presented in the form of cytotoxicity curves, and the graphs were also plotted in a Microsoft Excel program; the calculation of the IC50 half-maximal inhibition concentration values was performed in a GraphPad Prism 6.0 (GraphPad Software Inc., San Diego, CA, USA) program, based on the equations of the cytotoxicity curves.

[2] = Solubility in water by HPLC; format: physicochemical; settings: for solubility at 5 min: water, kinetic from dmso stock
Experimental: The solubility of the compounds in water was assessed using HPLC analysis. Two 1.0 mg portions of the test compounds were dissolved in 10 μL of dimethyl sulfoxide; 1.0 mL of acetonitrile was added to one sample (standard), and 1.0 mL of water was added to the second sample (tested sample). Both vials were mixed in a shaker for 5 min, then centrifuged at 10,000 rpm for 5 min. The supernatants were collected and analyzed using Agilent 1290 Infinity (Agilent Technologies, Santa Clara, CA, USA) with a YMC-Triart C18 50 × 2.0 mm, 1.9 μm column. The concentration of the test compound in water was determined by comparing the peak areas of the standard (concentration 1.0 mg/mL) and the tested sample.

[3] = system: HepG2 human liver carcinoma cells; assay: MTT cytotoxicity (hepatotoxicity) on HepG2; format: cell-based; settings: for IC50: Homo sapiens, HepG2, 24 h
Experimental: as §1

MRSA = assay: Selectivity index (average IC50 on eukaryotic cells / average MIC on MRSA); format: cell-based, Staphylococcus aureus; settings: average IC50 on eukaryotic cells divided by average MIC on MRSA
Experimental: The selectivity index was calculated for each compound as the average IC50 on eukaryotic cells divided by the average MIC on MRSA (Table 2).

Caco-2 cells = assay: Caco-2 cell monolayer permeability; format: in vitro ADME, human
Experimental: The MultiScreen Caco-2 (ATCC cat. # HTB-37) test system (Millipore, St. Charles, MO, USA) was used to study the transport through a cell monolayer, according to the manufacturer’s instructions. Briefly, a study of transport from the apical membrane to the basolateral (A-B) area and in the opposite direction (B-A) was carried out on a 21-day culture of Caco-2 at a 1 µM concentration of the tested compound for 2 h. Monolayer integrity was verified by measuring electrical resistance (TEER) using a Millicell-ERS instrument. A TEER value of at least 3 KOhm/well was determined to be acceptable.

[4] = read-out: Solubility in water, mass concentration
[5] = read-out: Solubility in water, molar concentration

Row | MIC Range Against 8 MRSA Strains (MRSA clinical isolates) [µg/mL] | solubility at 5 min [2, 4] [µg/mL] | solubility at 5 min [2, 5] [µM] | Structure (SMILES) | IC50 [1] [µg/mL] | Selectivity Index (MRSA) | other results
1 | 1 (≈ 2.97 µM) | 29.6 | 90 | CCOC(=O)c1[nH]c2ccccc2c1/N=N/N(C)Cc1ccccc1 [BX-SI003, Ethyl (E)-3-(3-benzyl-3-methyltriaz-1-en-1-yl)-1H-indole-2-carboxylate] | 3 (≈ 8.92 µM) |  | 
2 | 0.5 to 1 | 33.1 | 90 | CCOC(=O)c1[nH]c2cc(F)ccc2c1/N=N/N1CCCN(C)CC1 [BX-SI039, Ethyl (E)-6-fluoro-3-((4-methyl-1,4-diazepan-1-yl)diazenyl)-1H-indole-2-carboxylate] | 19 (≈ 54.7 µM) | 20 | MIC (MRSA clinical isolates; Figure 6, MRSA strain 2): 1 µg/mL (≈ 2.88 µM); MIC (MRSA clinical isolates; Figure 6, MRSA strain 7): 1 µg/mL (≈ 2.88 µM); MIC (MRSA clinical isolates; Figure 6, MRSA strain 8): 1 µg/mL (≈ 2.88 µM); MIC (MRSA clinical isolates; Figure 6, MRSA strain 9): 1 µg/mL (≈ 2.88 µM); MIC (MRSA clinical isolates; Figure 6, MRSA strain 13): 1 µg/mL (≈ 2.88 µM); MIC (MRSA clinical isolates; Figure 6, MRSA strain 21): 0.5 µg/mL (≈ 1.44 µM); MIC (MRSA clinical isolates; Figure 6, MRSA strain 48): 1 µg/mL (≈ 2.88 µM); MIC (MRSA clinical isolates; Figure 6, MRSA strain 50): 0.5 µg/mL (≈ 1.44 µM); IC50 [3]: 16 µg/mL (≈ 46.1 µM)
3 | 0.5 (≈ 1.5 µM) | 11.7 | 350 | CCOC(=O)c1[nH]c2cc(F)ccc2c1/N=N/N1CCN(C)CC1 [BX-SI035, Ethyl ester ethyl (E)-6-fluoro-3-((4-methylpiperazin-1-yl)diazenyl)-1H-indole-2-carboxylate] | 20 (≈ 60 µM) | 41 | MIC (MRSA clinical isolates; Figure 6, MRSA strain 2): 0.5 µg/mL (≈ 1.5 µM); MIC (MRSA clinical isolates; Figure 6, MRSA strain 7): 0.5 µg/mL (≈ 1.5 µM); MIC (MRSA clinical isolates; Figure 6, MRSA strain 8): 0.5 µg/mL (≈ 1.5 µM); MIC (MRSA clinical isolates; Figure 6, MRSA strain 9): 0.5 µg/mL (≈ 1.5 µM); MIC (MRSA clinical isolates; Figure 6, MRSA strain 13): 0.5 µg/mL (≈ 1.5 µM); MIC (MRSA clinical isolates; Figure 6, MRSA strain 21): 0.5 µg/mL (≈ 1.5 µM); MIC (MRSA clinical isolates; Figure 6, MRSA strain 48): 0.5 µg/mL (≈ 1.5 µM); MIC (MRSA clinical isolates; Figure 6, MRSA strain 50): 0.5 µg/mL (≈ 1.5 µM); IC50 [3]: 21 µg/mL (≈ 63 µM)
4 | >1 |  |  | CCOC(=O)c1[nH]c2ccccc2c1/N=N/N1CCC(CCOC)CC1 [BX-SI016, Ethyl (E)-3-((4-(2-methoxyethyl)piperidin-1-yl)diazenyl)-1H-indole-2-carboxylate] | 34 (≈ 94.9 µM) |  | 
5 |  |  |  | CNC(=C[N+](=O)[O-])NCCSCc1ccc(CN(C)C)o1 [Ranitidine, ranitidine] |  |  | Papp A-B (Caco-2 cells; Caco-2, 1 µM, 2 h): 1.48 10^-6 sm/s; Mass balance (Caco-2 cells; Caco-2, first value: A-B / apical): 96%
6 | 0.5 to 1 | 16.7 | 53 | CCOC(=O)c1[nH]c2ncccc2c1/N=N/N1CCN(C)CC1 [BX-SI057, Ethyl (E)-3-((4-methylpiperazin-1-yl)diazenyl)-1H-pyrrolo[2,3-b]pyridine-2-carboxylate] | 3 (≈ 9.48 µM) |  | 
7 | 1 (≈ 3.17 µM) | 0.399 | 1 | CCOC(=O)c1[nH]c2ncccc2c1/N=N/N1CCC(C)CC1 [BX-SI058, Ethyl (E)-3-((4-methylpiperidin-1-yl)diazenyl)-1H-pyrrolo[2,3-b]pyridine-2-carboxylate] | 12 (≈ 38 µM) |  | 

Row | Structure (SMILES) | MIC Range Against 8 MRSA Strains (MRSA clinical isolates) [µg/mL] | solubility at 5 min [2, 4] [µg/mL] | solubility at 5 min [2, 5] [µM] | IC50 [1] [µg/mL] | Selectivity Index (MRSA) | other results
8 | CCOC(=O)c1[nH]c2cc(F)ccc2c1/N=N/N(C)CCN(C)C [BX-SI044, Ethyl (E)-3-(3-(2-(dimethylamino)ethyl)-3-methyltriaz-1-en-1-yl)-6-fluoro-1H-indole-2-carboxylate] | 0.25 to 1 |  |  |  | 27 | IC50 HEF [1]: 19 µg/mL (≈ 56.7 µM); IC50 HepG2 ([3]; 24 h): 13 µg/mL (≈ 38.8 µM); Solubility in water, mass concentration [2]: 17.55 µg/mL (≈ 52.3 µM)
